One molecule from US20230330093A1, “APPLICATION OF NITROGEN-CONTAINING SATURATED HETEROCYCLIC COMPOUND” (SHANGHAI PHARMACEUTICALS HOLDING CO., LTD., priority 2020, published 2023) can be followed below.

The series concerns rhesus monkeys with spontaneous chronic kidney disease. As to the kind of experiment: Safety tolerance study (adverse events, liver and renal function, food intake, body weight, hematology), 8-week administration. The class given is in vivo, Macaca mulatta (Rhesus Macaque). The conditions noted are these: 1, 2, 5 mg/kg qd groups, 8-week administration period. The text has this: Glucose and lipid metabolism and liver function: FPG, FRA, LDL-c, HDL-c, TG, TC, NT-proBNP, ALT, AST, TBIL, etc., twice before administration, once at weeks 4 and 8 respectively after administration;
Other biochemical indicators and hematology testing, once each before and after administration;
Body weight: once before administration, once a week during the administration period;
Hematology testing equipment: Siemens ADVIA 2120i Hematology Systems.
Number of observations: Observation was performed once a day.
Observation method: observation in cage.
Observation content: injection site, skin, hair, eyes, ears, nose, oral cavity, chest, abdomen, urogenital, limbs and other parts, as well as breathing, exercise, urinary, defecation and behavior changes.
Feeding method: Food was supplied once at 8:009:00 in the morning, 10:00 in the morning, 2:00 in the afternoon, and 4:00 in the afternoon, respectively, to ensure that there was food in the food box and animals ate freely. The remaining feed was removed at 07:40-8:00 in the next day.
Feeding amount: about 250-500 g/animal/day. In the experiment, it was ensured that there was feed in the food box for 24 hours, and the animals can eat freely.
Method for measuring food intake: The feed was estimated by a semi-quantitative method, and the amount of food given, the amount discarded and the remaining amount in food boxes were recorded every day. […]

Turning to `COC(=O)NCCCn1nc([C@@H](C)N(C(=O)[C@H]2CNCCO2)C2CC2)c2ccc(C)nc21.O=C(O)C[C@H](O)C(=O)O` [malate of compound of Formula I], the “adverse events related to administration” value is “no adverse events related to administration” and the “changes in liver function, renal function, food intake, body weight, hematological indicators” value is on record as “no significant changes were observed”.
